# ChEMBL document CHEMBL3351958, “Structure-activity relationships of sugar-based peptidomimetics as modulators of amyloid β-peptide early oligomerization and fibrillization” (Eur J Med Chem, 2014)
# Activity calls are given as the source filed them. The calls are words filed in the database; no cut-off is given here. Numbered stars: 1 amine (or outer) side, 2 acyl side, 3 side chain; on linkers, the order of the positions; unused ones are H or OH. Square brackets hold non-standard residues; d marks the D form. Peptide text beside a SMILES is read from it. * marks the point of attachment. X1 = O=C(CCOC[C@H]1O[C@@H](OCCCN[*:1])[C@H](O)[C@@H](O)[C@@H]1O)[*:2]; X2 = O=C(CCOC[C@H]1O[C@@H](OCCN[*:1])[C@H](O)[C@@H](O)[C@@H]1O)[*:2]; X4 = O=C(CCOC[C@H]1O[C@H](OCCCN[*:1])[C@H](O)[C@@H](O)[C@@H]1O)[*:2]; X3 = O=C(CCOC[C@H]1O[C@H](OCCN[*:1])[C@H](O)[C@@H](O)[C@@H]1O)[*:2]; Boc = CC(C)(C)OC(=O)*
# Key:
# [1] = biological target: Amyloid-beta precursor protein (Homo sapiens) (UniProt P05067); test: Inhibition of amyloid beta (1 to 42) (unknown origin) oligomerization assessed as fold change in half-life of aggregation extension/reduction at 1:1 Abeta:compound ratio by thioflavin T assay based fluorescence microscopy
# Chain of Amyloid-beta precursor protein (Homo sapiens) (P05067 whole entry): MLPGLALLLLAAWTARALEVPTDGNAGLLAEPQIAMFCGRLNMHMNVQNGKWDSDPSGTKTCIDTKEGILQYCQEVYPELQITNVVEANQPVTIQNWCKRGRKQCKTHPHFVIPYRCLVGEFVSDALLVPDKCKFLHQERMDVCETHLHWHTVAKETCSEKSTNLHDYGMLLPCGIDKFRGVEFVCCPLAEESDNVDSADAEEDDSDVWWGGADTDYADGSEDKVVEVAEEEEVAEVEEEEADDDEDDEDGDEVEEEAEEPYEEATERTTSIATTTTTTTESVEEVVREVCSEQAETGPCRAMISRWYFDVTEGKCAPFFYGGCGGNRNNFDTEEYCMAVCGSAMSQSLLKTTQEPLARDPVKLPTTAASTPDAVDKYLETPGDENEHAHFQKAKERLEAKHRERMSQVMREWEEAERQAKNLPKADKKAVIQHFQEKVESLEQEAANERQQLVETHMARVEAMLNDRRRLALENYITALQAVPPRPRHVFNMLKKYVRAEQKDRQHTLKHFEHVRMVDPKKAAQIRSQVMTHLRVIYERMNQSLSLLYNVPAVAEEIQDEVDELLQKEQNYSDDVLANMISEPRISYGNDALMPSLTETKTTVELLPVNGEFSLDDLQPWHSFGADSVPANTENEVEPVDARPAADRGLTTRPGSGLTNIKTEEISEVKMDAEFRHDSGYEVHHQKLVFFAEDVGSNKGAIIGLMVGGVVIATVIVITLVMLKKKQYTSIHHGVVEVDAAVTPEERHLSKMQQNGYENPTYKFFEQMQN
# [2] = biological target: Amyloid-beta precursor protein (Homo sapiens) (UniProt P05067); test: Inhibition of amyloid beta (1 to 42) (unknown origin) oligomerization assessed as fold change in half-life of aggregation extension/reduction at 1:10 Abeta:compound ratio by thioflavin T assay based fluorescence microscopy
# [3] = biological target: Amyloid-beta precursor protein (Homo sapiens) (UniProt P05067); test: Inhibition of amyloid beta (1 to 42) (unknown origin) oligomerization assessed as reduction in intensity of experimental fluorescence plateau at 1:1 Abeta:compound ratio by thioflavin T assay based fluorescence microscopy
# [4] = biological target: Amyloid-beta precursor protein (Homo sapiens) (UniProt P05067); test: Inhibition of amyloid beta (1 to 42) (unknown origin) oligomerization assessed as reduction in intensity of experimental fluorescence plateau at 1:10 Abeta:compound ratio by thioflavin T assay based fluorescence microscopy; design: scale not given: the % may be the effect or the level left
# [5] = biological target: Amyloid-beta precursor protein (Homo sapiens) (UniProt P05067); test: Inhibition of amyloid beta (1 to 42) (unknown origin) oligomerization assessed as increase in intensity of experimental fluorescence plateau at 1:10 Abeta:compound ratio by thioflavin T assay based fluorescence microscopy; design: scale not given: the % may be the effect or the level left
# [6] = biological target: Amyloid-beta precursor protein (Homo sapiens) (UniProt P05067); test: Inhibition of amyloid beta (1 to 42) (unknown origin) oligomer formation at 1:2 Abeta:compound ratio after 4 to 6 hrs by capillary electrophoresis
# [7] = biological target: Amyloid-beta precursor protein (Homo sapiens) (UniProt P05067); test: Inhibition of amyloid beta (1 to 42) (unknown origin) oligomer formation at 1:1 Abeta:compound ratio after 4 to 6 hrs by capillary electrophoresis
# [8] = biological target: Amyloid-beta precursor protein (Homo sapiens) (UniProt P05067); test: Inhibition of amyloid beta (1 to 42) (unknown origin) fibril formation at 100 uM after 4 to 24 hrs by transmission electron microscopy
# [9] = biological target: Amyloid-beta precursor protein (Homo sapiens) (UniProt P05067); test: Inhibition of amyloid beta (1 to 42) (unknown origin) oligomer formation at 1:10 Abeta:compound ratio after 4 to 6 hrs by capillary electrophoresis
# [10] = biological target: Amyloid-beta precursor protein (Homo sapiens) (UniProt P05067); test: Inhibition of amyloid beta (1 to 42) (unknown origin) oligomerization assessed as reduction in intensity of experimental fluorescence plateau at 1:5 Abeta:compound ratio by thioflavin T assay based fluorescence microscopy; design: scale not given: the % may be the effect or the level left
# [11] = biological target: Amyloid-beta precursor protein (Homo sapiens) (UniProt P05067); test: Inhibition of amyloid beta (1 to 42) (unknown origin) oligomer formation at 100 uM after 4 to 6 hrs by capillary electrophoresis
# [12] = biological target: Amyloid-beta precursor protein (Homo sapiens) (UniProt P05067); test: Inhibition of amyloid beta (1 to 42) (unknown origin) oligomerization assessed as fold change in half-life of aggregation extension/reduction at 1:5 Abeta:compound ratio by thioflavin T assay based fluorescence microscopy
# [13] = biological target: Amyloid-beta precursor protein (Homo sapiens) (UniProt P05067); test: Inhibition of amyloid beta (1 to 42) (unknown origin) oligomer formation assessed as monomer stabilization at 100 uM after 4 to 6 hrs by capillary electrophoresis
Structure (SMILES),fold change in aggregation half-life [1],fold change (FC) [2],inhibition [3],Activity [4],Activity [5] [%],inhibition [6],inhibition [7],inhibition [8],inhibition [9],Activity [10] [%],inhibition [11],fold change (FC) [12],inhibition [13]
COC(=O)[C@H](CC(C)C)NC(=O)[C@@H](NC(=O)CCOC[C@H]1O[C@@H](OCCCNC(=O)[C@@H](NC(=O)[C@H](C)NC(=O)OC(C)(C)C)C(C)C)[C@H](OC(C)=O)[C@@H](OC(C)=O)[C@@H]1OC(C)=O)C(C)C,inactive,inactive,inactive,inactive,,,,,,,,,
COC(=O)[C@H](CC(C)C)NC(=O)[C@@H](NC(=O)CCOC[C@H]1O[C@H](OCCNC(=O)[C@@H](NC(=O)[C@H](C)NC(=O)OC(C)(C)C)C(C)C)[C@H](OC(C)=O)[C@@H](OC(C)=O)[C@@H]1OC(C)=O)C(C)C,inactive,inactive,inactive,inactive,,,,,,,,,
OC[C@H]1OC(O)[C@H](O)[C@@H](O)[C@@H]1O (stereo partly drawn),inactive,inactive,inactive,inactive,,,,,,,,,
COC(=O)[C@H](CC(C)C)NC(=O)[C@@H](NC(=O)CCOC[C@H]1O[C@@H](OCCCNC(=O)[C@@H](NC(=O)[C@H](C)NC(=O)OC(C)(C)C)C(C)C)[C@H](O)[C@@H](O)[C@@H]1O)C(C)C (Boc-AV[X1]VL-OMe),inactive,1.9,inactive,37%,,,inactive,inactive,inactive,,,,
COC(=O)[C@H](CC(C)C)NC(=O)[C@@H](NC(=O)CCOC[C@H]1O[C@@H](OCCNC(=O)[C@@H](NC(=O)[C@H](C)NC(=O)OC(C)(C)C)C(C)C)[C@H](O)[C@@H](O)[C@@H]1O)C(C)C (Boc-AV[X2]VL-OMe),inactive,1.8,inactive,29%,,,,,,,,,
COC(=O)[C@H](CC(C)C)NC(=O)[C@@H](NC(=O)CCOC[C@H]1O[C@H](OCCNC(=O)[C@@H](NC(=O)[C@H](C)NC(=O)OC(C)(C)C)C(C)C)[C@H](O)[C@@H](O)[C@@H]1O)C(C)C (Boc-AV[X3]VL-OMe),inactive,inactive,inactive,inactive,,,,,,,,,
COC(=O)[C@H](CC(C)C)NC(=O)[C@@H](NC(=O)OC(C)(C)C)C(C)C (Boc-Val-Leu-OMe),inactive,inactive,inactive,inactive,,,,,,,,,
COC(=O)[C@H](CC(C)C)NC(=O)[C@@H](N)C(C)C (H-Val-Leu-OMe),inactive,inactive,inactive,inactive,,,,,,,,,

# Second part, the compound after the results:
fold change in aggregation half-life [1],fold change (FC) [2],inhibition [3],Activity [4],Activity [5] [%],inhibition [6],inhibition [7],inhibition [8],inhibition [9],Activity [10] [%],inhibition [11],fold change (FC) [12],inhibition [13],Structure (SMILES)
inactive,inactive,inactive,inactive,,,,,,,,,,COC(=O)[C@H](CC(C)C)NC(=O)[C@@H](NC(=O)CCOC[C@H]1OC(O)[C@H](O)[C@@H](O)[C@@H]1O)C(C)C (stereo partly drawn)
inactive,0.8,inactive,,14,,,,,,,,,COC(=O)[C@H](CC(C)C)NC(=O)[C@@H](NC(=O)CCOC[C@H]1OC(O)[C@H](OCc2ccccc2)[C@@H](OCc2ccccc2)[C@@H]1OCc1ccccc1)C(C)C (stereo partly drawn)
inactive,0.7,inactive,,27,Active,inactive,Active,,,,,,COC(=O)[C@H](CC(C)C)NC(=O)[C@@H](NC(=O)CCOC[C@H]1O[C@@H](OCCCNC(=O)[C@@H](NC(=O)[C@H](C)NC(=O)OC(C)(C)C)C(C)C)[C@H](OCc2ccccc2)[C@@H](OCc2ccccc2)[C@@H]1OCc1ccccc1)C(C)C
inactive,0.8,inactive,,38,,,,,,,,,COC(=O)[C@H](CC(C)C)NC(=O)[C@@H](NC(=O)CCOC[C@H]1O[C@@H](OCCNC(=O)[C@@H](NC(=O)[C@H](C)NC(=O)OC(C)(C)C)C(C)C)[C@H](OCc2ccccc2)[C@@H](OCc2ccccc2)[C@@H]1OCc1ccccc1)C(C)C
inactive,inactive,inactive,inactive,,,,,,,,,,COC(=O)[C@H](CC(C)C)NC(=O)[C@@H](NC(=O)CCOC[C@H]1O[C@H](OCCCNC(=O)[C@@H](NC(=O)[C@H](C)NC(=O)OC(C)(C)C)C(C)C)[C@H](O)[C@@H](O)[C@@H]1O)C(C)C (Boc-AV[X4]VL-OMe)
inactive,2.8,inactive,56%,,,Active,Active,Active,40,Active,2.1,Active,COC(=O)[C@H](CC(C)C)NC(=O)[C@@H](NC(=O)CCOC[C@H]1O[C@@H](OCCCNC(=O)[C@@H](NC(=O)[C@H](C)N)C(C)C)[C@H](O)[C@@H](O)[C@@H]1O)C(C)C (H-AV[X1]VL-OMe)
inactive,inactive,inactive,inactive,,,,,,,,,,COC(=O)[C@H](CC(C)C)NC(=O)[C@@H](NC(=O)CCOC[C@H]1O[C@@H](OCCNC(=O)[C@@H](NC(=O)[C@H](C)N)C(C)C)[C@H](O)[C@@H](O)[C@@H]1O)C(C)C (H-AV[X2]VL-OMe)
